US20200407700A1, “COMPOSITIONS OF PARP14 MODULATORS AND/OR MUTANTS AND THERAPEUTIC USE THEREOF” (President and Fellows of Harvard College, priority 2018, published 2020)
“Also recorded” adds a separate entry of the source.

How the values were obtained:
[1] = system: bone marrow derived macrophages (BMDMs); assay: NAD^+ levels in LPS-treated bone marrow derived macrophages (enzyme-coupled luciferase assay); assay type: cell-based, mouse; details: for LPS-induced drop in NAD^+ levels / protection of NAD^+ levels in macrophages exposed to LPS: BMDMs; for LPS-induced drop in NAD^+ levels: 6 hours of treatment, in the presence of LPS
Excerpt: FIG. 2 contains 13 panels, 2A-2M, depicting that PARP14 is necessary for LPS-induced NAD^+ destruction. FIG. 2A-2C show NAD^+ levels in response to LPS in wild-type or (FIG. 2A) CD38KO, (FIG. 2B) SARM1KO, and (FIG. 2C) PARP1KO BMDMs. […] FIGS. 2K and 2L show NAD^+ (2K) and NADH levels (2L) in PARP14KO BMDMs.
FIG. 3 contains 6 panels, 3A-3F, depicting PARP14 catalytic mechanism. […] FIG. 3E depicts NAD^+ levels after treatment with NSC-61610. FIG. 3F depicts NAD^+ levels after treatment with NSC-127133 and LPS.
NAD^+ levels rapidly decline upon LPS-activation in bone marrow derived macrophages (BMDMs). […] NAD^+ and NADH levels recover after about 24 hours (FIG. 1A-1B). […] Using a genetically-encoded fluorescent reporter in RAW264.7 immortalized macrophages (FIG. 1C), it was confirmed that these changes occur in all three major compartments of the cell. Mass spectrometry-based metabolomics in BMDMs were performed which confirmed that an increase in NAD^+ hydrolysis is driving the phenomenon (FIG. 1D-1E). Additional experiments using flux metabolomics in collaboration with Professor Marie Migaud at the University of South Alabama may be used in order to determine the rates of consumption and salvage of NAD^+, before and after treatment with LPS. In such experiments, isotopically-labeled NMN (an NAD^+ precursor) are synthesized with labels on the phosphate, ribose, and nicotinamide groups, which allows tracing of multiple downstream metabolites.

elderly mice = details: cited from earlier work
LPS induced sepsis = assay: LPS-induced sepsis (I.P. injection of LPS); assay type: in vivo; details: mice
Experimental: One common assay to measure inflammation in vivo is with LPS induced sepsis, whereby LPS is injected intraperitoneally, resulting in a lethal cytokine storm. Drugs or mutations that suppress inflammation increase survival. Mice euthanized 6 hours after LPS injection show in increase in PARP14 levels in multiple tissues (FIG. 13A-D). NAD^+ levels fall in multiple tissues, and in at least in spleen, NAD^+ levels can be protected with a co-injection of PARPi and NRH (FIG. 13E).

[2] = system: reactive oxygen species (ROS) production; assay: Nigericin-induced ROS production in macrophages; assay type: cell-based; details: 30 min nigericin treatment; preliminary, must be repeated
Experimental: (§1) Polar metabolomics on BMDM extracts treated with LPS, OUL35, and NRH were performed. […] Recently, Prof. Marcia Haigis (HMS) published that Sirt3, an NAD^+-sensor, regulates nucleotide metabolism (Gonzalez Herrera et al., 2018). While an increase in nucleotides could promote DNA synthesis, macrophages are reported to suppress the cell cycle in response to LPS. However, macrophages do upregulate reactive oxygen species (ROS) production for bactericidal purposes in response to LPS, and two purines—hypoxanthine and xanthine—are important for this ROS production via the enzyme xanthine oxidase (XO). With the hypothesis that macrophages increase these metabolites for increased ROS production in mind, PARPi and NRH suppress nigericin-induced ROS production, although this experiment must be repeated (FIG. 12O).

[3] = system: poly-ADP-ribose (PAR) levels; assay: Poly-ADP-ribose (PAR) levels in LPS-treated macrophages; assay type: cell-based; details: NAD+ repletion
Excerpt: NMN, which raises levels of NAD^+, can suppress secretion of IL-1β and IL-18. […] The most robust observation seen is a restoration of poly-ADP-ribose (PAR) levels (FIG. 11B). While this is clearly an effect of restoring NAD^+ levels, its significance on macrophage function is unclear. […] Inflammatory gene expression may be altered, but this must be repeated with an increased N-value (FIG. 11D-F).

[4] = system: inflammasome (caspase-1 cleavage); assay: Inflammasome activation measured by Caspase 1 cleavage (Casp-1 p20); assay type: cell-based; details: only somewhat reproducible
Excerpt: (§2) FIG. 4 contains 5 panels, 4A-4E, depicting that NAD^+ decline promotes inflammasome activation. FIG. 4A-4D show secretion of (FIG. 4A) IL-1β, (FIG. 4B) IL-18, (FIG. 4C) IL-6, and (FIG. 4D) TNF in response to LPS and nigericin, without and with NMN.
One hallmark of inflammasome activation is cleavage of caspase-1 to generate a 20 kD peptide.

BMDM = assay: Polar metabolomics on BMDM extracts; assay type: cell-based, mouse
Experimental: as §1

PARP1 = PARP1 (Homo sapiens, UniProt P09874); details: cited from earlier work
PARPs 4, 10, 14, and 16 = details: cited from earlier work
spleen NAD+ levels = assay: NAD^+ levels in aged spleens after I.P. injection; assay type: in vivo; details: 27 month old mice, 20 mg/kg intraperitoneally, 2 hours post-injection
Experimental: 27 month old mice were injected intraperitoneally with 20 mg/kg of OUL35 dissolved in PBS with 40% HP-beta-cyclodextrin and 1% carboxymethylcellulose. Spleens were collected 2 hours post-injection and assayed for NAD+ levels.

influenza = details: via a different mechanism; cited from earlier work
[5] = system: secretion of IL-1β, IL-18, IL-6 and TNF; assay: Cytokine secretion in response to LPS and nigericin; assay type: cell-based
Excerpt: as §2
IL-1β and IL-18 are unique cytokines in that they require activation of an inflammasome to be processed for release.

Chain of PARP1 (P09874 whole entry, species assumed): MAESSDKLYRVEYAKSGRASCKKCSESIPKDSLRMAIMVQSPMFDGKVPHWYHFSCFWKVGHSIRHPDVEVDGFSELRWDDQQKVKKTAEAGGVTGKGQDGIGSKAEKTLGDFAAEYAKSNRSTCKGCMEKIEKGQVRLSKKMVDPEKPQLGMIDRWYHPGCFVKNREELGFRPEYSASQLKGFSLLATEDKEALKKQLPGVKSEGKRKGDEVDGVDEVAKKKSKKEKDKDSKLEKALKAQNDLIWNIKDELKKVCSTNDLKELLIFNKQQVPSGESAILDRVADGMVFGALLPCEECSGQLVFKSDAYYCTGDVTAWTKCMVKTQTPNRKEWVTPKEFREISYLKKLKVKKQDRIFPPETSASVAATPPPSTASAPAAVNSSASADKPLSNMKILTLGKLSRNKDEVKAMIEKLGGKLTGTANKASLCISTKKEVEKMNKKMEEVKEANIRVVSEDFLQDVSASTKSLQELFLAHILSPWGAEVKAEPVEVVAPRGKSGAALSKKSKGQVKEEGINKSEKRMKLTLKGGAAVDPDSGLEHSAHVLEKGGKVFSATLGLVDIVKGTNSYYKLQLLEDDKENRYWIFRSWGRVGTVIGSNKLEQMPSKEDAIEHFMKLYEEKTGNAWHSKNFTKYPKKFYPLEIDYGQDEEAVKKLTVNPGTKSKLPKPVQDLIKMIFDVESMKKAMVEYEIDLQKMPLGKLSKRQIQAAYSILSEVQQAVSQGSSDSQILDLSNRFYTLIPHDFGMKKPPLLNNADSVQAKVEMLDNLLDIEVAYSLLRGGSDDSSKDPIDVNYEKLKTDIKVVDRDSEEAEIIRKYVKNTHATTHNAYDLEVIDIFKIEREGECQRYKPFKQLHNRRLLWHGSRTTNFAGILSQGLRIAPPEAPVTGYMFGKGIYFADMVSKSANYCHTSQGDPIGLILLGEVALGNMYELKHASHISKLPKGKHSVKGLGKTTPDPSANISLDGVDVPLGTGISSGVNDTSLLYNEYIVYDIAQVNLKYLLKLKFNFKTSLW

Structure (SMILES): O=C(O)c1ccccc1-c1ccccc1C(=O)Nc1ccc2c(c1)[nH]c(=O)c1ccccc12 [NSC-127133]
- LPS-induced drop in NAD^+ levels [1]: able to block the fall
- raise NAD^+ levels in activated macrophages, compared with NMN [1]: beyond NMN

Structure (SMILES): NC(=O)c1ccc[n+]([C@@H]2O[C@H](CO)[C@@H](O)[C@H]2O)c1 [NR, nicotinamide riboside]
- metabolism and aspects of ageing (elderly mice): improve metabolism and reverse aspects of ageing

Structure (SMILES): NC(=O)C1=CN([C@@H]2O[C@H](CO)[C@@H](O)[C@H]2O)C=CC1 [NRH, Nicotinamide riboside hydride]
- protection of NAD^+ levels in macrophages exposed to LPS [1]: protect; also recorded: more potent protectors
- raising NAD^+ levels in BMDMs ([1]; absence and presence of LPS, after 6 hours): extremely potent
- NAD^+ levels in spleen (LPS induced sepsis; 6 hours after I.P. injection of LPS, co-injection): protected
- survival (LPS induced sepsis; I.P. injection of LPS, vs LPS alone): moderately increased survival
- nigericin-induced ROS production [2]: suppress
- poly-ADP-ribose (PAR) levels [3]: restoration
- cleavage of caspase-1 (inflammasome activation) [4]: suppression of inflammasome activation
- metabolite changes induced by LPS (BMDM): blunt the changes induced by LPS

Structure (SMILES): NC(=O)c1ccc(Oc2ccc(C(N)=O)cc2)cc1 [OUL35]
- LPS-induced drop in NAD^+ levels [1]: blocked the drop
- raise NAD^+ levels in activated macrophages, compared with NMN [1]: beyond NMN
- cleavage of caspase-1 (inflammasome activation) [4]: suppress
- activity against PARP1 (PARP1): no activity
- inhibition of PARPs 4, 10, 14, and 16 (PARPs 4, 10, 14, and 16): inhibitor
- NAD^+ levels in aged spleens (spleen NAD+ levels): raises NAD^+ levels
- metabolite changes induced by LPS (BMDM): blunt the changes induced by LPS

Structure (SMILES): CN(C)CC(=O)Nc1ccc2[nH]c(=O)c3ccccc3c2c1 [PJ-34]
- LPS-induced drop in NAD^+ levels [1]: completely blocked
- raise NAD^+ levels in activated macrophages, compared with NMN [1]: beyond NMN
- cleavage of caspase-1 (inflammasome activation) [4]: suppress

Structure (SMILES): CCOc1ccccc1Cl [NSC-61610]
- LPS-induced drop in NAD^+ levels [1]: able to block the fall
- raise NAD^+ levels in activated macrophages, compared with NMN [1]: beyond NMN
- effect in a model of influenza (influenza): anti-inflammatory

Structure (SMILES): NC(=O)c1ccc[n+]([C@@H]2O[C@H](COP(=O)([O-])O)[C@@H](O)[C@H]2O)c1 [NMN, nicotinamide mononucleotide]
- protection of NAD^+ levels in macrophages exposed to LPS [1]: slightly protect
- secretion of IL-1β and IL-18 [5]: suppress
- secretion of IL-6 or TNF [5]: not
- metabolism and aspects of ageing (elderly mice): improve metabolism and reverse aspects of ageing

Structure (SMILES): NC(=O)c1cccc(N)c1 [3-aminobenzimide]
- LPS-induced drop in NAD^+ levels [1]: completely blocked
- raise NAD^+ levels in activated macrophages, compared with NMN [1]: beyond NMN
